Test results from US20150259344A1, “IMIDAZOLE DERIVATIVE” (DAINIPPON SUMITOMO PHARMA CO., LTD., priority 2012, published 2015).

Key:
Slc:ddY mice = experiment: Novel object recognition test in mice (mORT), evaluation of cognitive function; format: in vivo; settings: 3 mg/kg (oral), administered prior to the 1st trial, 2nd trial 24 hours after
Procedure: Evaluation of Cognitive Function with Mice in Novel Object Recognition Test (Hereinafter. Referred to as “mORT”)
Slc:ddY mice (25 to 30 g, male, Japan SLC) can be used in the novel object recognition test wherein the interval between the 1st trial (training) and the 2nd trial (test) correlates with the memory loss for the objects used in the 1st trial, and a significant memory-loss is observed when the 2nd trial is performed 24 hours after the 1st trial. According to the test mechanism, the present compounds were administered prior to the 1st trial, and the enhancement effect on memory in the 2nd trial was evaluated.

human α7 nAChR = target: T1, human α7 nAChR (Homo sapiens, UniProt P36544); experiment: Evaluation of PAM activity with human α7 nACh receptor stably expressing cells (aequorin luminescence, FDSS7000); format: cell-based; settings: ACh at EC20, ratio of RLU (Max-Min) to control wells; for activity at 10 µM: 10 μM test compound, read-out: α7PAM (%) @10 μM; for activity at 1 µM: 1 μM test compound (values marked *, footnote of Table 25), read-out: α7PAM (%) @1 μM
T1 construct: expressed in transfected cells
Method in brief: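 Human α7 nAChR stable cells loaded with 4 μM Viviren (final) for 4 h at room temperature in the dark. Compounds in Hanks/20 mM HEPES/0.2% BSA were added and luminescence recorded on FDSS7000. PAM activity = RLU (Max-Min) ratio of test wells to control wells.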

Slc:Wistar rats = experiment: Y-shaped maze test in rats (Y-maze test), scopolamine-induced cognitive impairment; format: in vivo; settings: 3 mg/kg (oral), treated prior to 0.6 mg/kg scopolamine HBr s.c.
Procedure: Evaluation on Improvement Against Cognitive Impairment with Rats in Y-Shaped Maze Test (Hereinafter, Referred to as “Y-Maze Test”)
In Y-maze test, 0.6 mg/kg scopolamine HBr (cat#S0929, Sigma Aldrich, Japan) can be subcutaneously administered to Slc:Wistar rats (280 to 300 g, male, Japan SLC) to cause cognitive impairment and decrease the percentage of spontaneous alternation behavior. According to the test mechanism, the present compounds were treated prior to the administration of scopolamine, and the improvement effect on cognitive impairment is evaluated.

T1 sequence (P36544 23-502): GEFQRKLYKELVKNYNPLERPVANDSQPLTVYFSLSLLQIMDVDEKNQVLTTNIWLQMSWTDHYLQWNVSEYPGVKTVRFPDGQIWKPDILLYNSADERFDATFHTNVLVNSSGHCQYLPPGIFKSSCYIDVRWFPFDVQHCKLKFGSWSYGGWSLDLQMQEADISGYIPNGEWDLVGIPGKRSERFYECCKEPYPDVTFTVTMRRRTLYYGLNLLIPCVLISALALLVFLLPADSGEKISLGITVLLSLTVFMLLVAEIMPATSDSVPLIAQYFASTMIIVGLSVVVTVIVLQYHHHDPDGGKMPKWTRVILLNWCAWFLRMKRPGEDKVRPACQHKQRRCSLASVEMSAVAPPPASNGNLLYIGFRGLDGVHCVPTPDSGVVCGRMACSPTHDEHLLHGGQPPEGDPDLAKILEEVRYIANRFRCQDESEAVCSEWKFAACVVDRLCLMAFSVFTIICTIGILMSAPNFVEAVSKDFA

Row | SMILES | activity at 10 µM (human α7 nAChR) [%] | also measured
1 | O=C(NC1CCOCC1)[C@H]1CC[C@@H](n2cnc(-c3ccc(F)c(F)c3)c2Cl)CC1 [Example 370, cis-4-[5-chloro-4-(3,4-difluorophenyl)-1H-imidazol-1-yl]-(tetrahydro-2H-pyran-4-yl)cyclohexanecarboxamide] |  | enhancement effect on memory in the 2nd trial (mORT) (Slc:ddY mice): significant memory enhancing effect
2 | O=C(NC1CCCCC1)N1CCC(n2cnc(-c3cccc(F)c3)c2)CC1 [Example 1, N-Cyclohexyl-4-[4-(3-fluorophenyl)-1H-imidazol-1-yl]piperidine-1-carboxamide] | 836 | enhancement effect on memory in the 2nd trial (mORT) (Slc:ddY mice): significant memory enhancing effect; improvement effect on cognitive impairment (Y-maze, spontaneous alternation behavior) (Slc:Wistar rats): significant improvement effect on memory disorder
3 | O=C(N[C@H]1CC[C@H](n2cnc(-c3ccccc3)c2Cl)CC1)C1CCC(F)(F)CC1 [Example 207] | 115 | 
4 | CC(C)(C)NC(=O)N1CCC(n2cnc(-c3ccccc3)c2C2CC2)CC1 [Example 109] | 457 | 
5 | O=C(NC1CCOCC1)N1[C@@H]2CC[C@H]1C[C@@H](n1cnc(-c3cc(F)ccc3F)c1Cl)C2 [Example 397] | 522 | 
6 | O=C(NC1CCCCC1)N1CCC(n2cnc(-c3ccncc3)c2Cl)CC1 [Example 135] | 154 | 
7 | Cc1c(-c2ccc(F)cc2)ncn1C1CCN(C(=O)C2CCC(F)(F)CC2)CC1 [Example 275] | 912 | 
8 | CC(C)(C)NC(=O)N1CCC(n2cnc(-c3ccc(F)cc3)c2)CC1 [Example 63] | 160 | 
9 | O=C(NC1CCC2(CC1)CC2)N1CCC(n2cnc(-c3cccc(F)c3)c2)CC1 [Example 46] |  | activity at 1 µM (human α7 nAChR): 104%
10 | O=C(C1CCC(F)(F)CC1)N1[C@@H]2CC[C@H]1C[C@H](n1cnc(-c3ccc(F)cc3)c1Cl)C2 [Example 452, {(3-exo)-3-[5-chloro-4-(4-fluorophenyl)-1H-imidazol-1-yl]-8-azabicyclo[3.2.1]oct-8-yl}(4,4-difluorocyclohexyl)methanone] |  | enhancement effect on memory in the 2nd trial (mORT) (Slc:ddY mice): significant memory enhancing effect
11 | N#Cc1c(-c2cccc(F)c2F)ncn1[C@@H]1C[C@H]2CC[C@@H](C1)N2C(=O)C1CCC(F)(F)CC1 [Example 463] |  | activity at 1 µM (human α7 nAChR): 181%

Second part, led by results:

Row | activity at 10 µM (human α7 nAChR) [%] | SMILES | also measured
12 | 787 | CC(C)(F)C(=O)N[C@H]1CC[C@@H](n2cnc(-c3ccc(Cl)cc3)c2)CC1 [Example 280, N-{cis-4-[4-(4-chlorophenyl)-1H-imidazol-1-yl]cyclohexyl}-2-fluoro-2-methylpropanamide] | enhancement effect on memory in the 2nd trial (mORT) (Slc:ddY mice): significant memory enhancing effect
13 | 791 | CC(C)(F)C(=O)N[C@H]1CC[C@@H](n2cnc(-c3ccc(F)cc3)c2Cl)CC1 [Example 183, N-{cis-4-[5-chloro-4-(4-fluorophenyl)-1H-imidazol-1-yl]cyclohexyl}-2-fluoro-2-methylpropanamide] | enhancement effect on memory in the 2nd trial (mORT) (Slc:ddY mice): significant memory enhancing effect; improvement effect on cognitive impairment (Y-maze, spontaneous alternation behavior) (Slc:Wistar rats): significant improvement effect on memory disorder
14 | 208 | CC(C)(F)C(=O)N[C@H]1CC[C@@H](n2cnc(-c3ccc(OC(F)(F)F)cc3F)c2)CC1 [Example 303] | 
15 | 469 | CC(C)(F)C(=O)N[C@H]1CC[C@@H](n2cnc(-c3cccc(Cl)c3)c2)CC1 [Example 286] | 
16 | 227 | CC(C)(F)C(=O)N[C@H]1CC[C@@H](n2cnc(-c3ccc(F)c(F)c3)c2)CC1 [Example 310] | 
17 | 290 | CC(C)(F)C(=O)N[C@H]1CC[C@@H](n2cnc(-c3cc(OC(F)(F)F)ccc3F)c2C#N)CC1 [Example 349] | 
18 | 325 | CC(C)(F)C(=O)N[C@H]1CC[C@@H](n2cnc(-c3cc(F)cc(F)c3)c2)CC1 [Example 302] | 
19 | 798 | O=C(NC1CCC(F)(F)CC1)N1CCC(n2cnc(-c3ccc(F)c(F)c3)c2)CC1 [Example 28] | 
20 | 420 | CC(F)(F)C(=O)N[C@H]1CC[C@@H](n2cnc(-c3ccc(Cl)cc3)c2)CC1 [Example 291] | 
21 | 326 | CC(C)(F)C(=O)N[C@H]1CC[C@@H](n2cnc(-c3cccc(F)c3)c2)CC1 [Example 294] | 
22 | 369 | O=C(NC1CCOCC1)N1CCC(n2cnc(-c3ccc(C(F)(F)F)c(F)c3)c2)CC1 [Example 251] | 
